The IC50 is the concentration that inhibits the measured activity by half. A higher IC50 goes with weaker potency in that assay.

The test addresses T1, Human HPK1, catalytic domain (Homo sapiens, UniProt Q92918).
T1 construct: purchased Carna
T1 sequence (Q92918 1-346): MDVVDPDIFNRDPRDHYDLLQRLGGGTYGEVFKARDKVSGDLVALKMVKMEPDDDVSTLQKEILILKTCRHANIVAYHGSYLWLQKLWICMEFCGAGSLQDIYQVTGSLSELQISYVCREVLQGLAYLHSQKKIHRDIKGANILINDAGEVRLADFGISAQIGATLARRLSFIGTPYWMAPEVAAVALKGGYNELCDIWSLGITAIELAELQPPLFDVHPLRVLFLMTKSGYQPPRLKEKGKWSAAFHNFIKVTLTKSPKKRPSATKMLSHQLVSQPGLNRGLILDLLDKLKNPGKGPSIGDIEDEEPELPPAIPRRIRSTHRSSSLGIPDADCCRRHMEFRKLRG
The test is described as follows: HPK1-SLP76 TR-FRET assay. It is filed as biochemical. As to conditions: 75 pM HPK1, 10 uM ATP, 10 nM SLP76, 30 min compound pre-incubation. In general terms: In TR-FRET formats the signal depends on donor and acceptor labels being close together.

In turn, `COc1cc2c(cc1Nc1ncc(C(N)=O)c(Nc3ccccc3-c3ncco3)n1)CN(C)CC2` [Example 14-3, 2-[(6-methoxy-2-methyl-1,2,3,4-tetrahydroisoquinolin-7-yl)amino]-4-{[2-(1,3-oxazol-2-yl)phenyl]amino}pyrimidine-5-carboxamide] returned an IC50 of 0.64 nM.

`CNC(=O)c1cccc(Nc2nc(Nc3cc4c(cc3OC)CCN(C)C4)ncc2C(N)=O)c1` [Example 7-38, 2-[(6-methoxy-2-methyl-1,2,3-tetrahydroisoquinolin-7-yl)amino]-4-{[3-(methylcarbamoyl)phenyl]amino} pyrimidine-5-carboxamide] displayed an IC50 of 7.77 nM.

Compound `COc1cc2c(cc1Nc1ncc(C(N)=O)c(Nc3ccccc3CN)n1)CN(C)CC2` [Example 2-3, 4-{[2-(aminomethyl)phenyl]-amino}-2-[(6-methoxy-2-methy1-1,2,3,4-tetrahydroisoquinolin-7-yl)amino]pyrimidine-5-carboxamide] had an IC50 of 1.64 nM.

On to `COc1cc2c(cc1Nc1ncc(C(N)=O)c(Nc3ccccc3C3CCCCC3)n1)CN(C)CC2` [Example 13-1, 4-[(2-cyclohexylphenyl)amino]-2-[(6-methoxy-2-methyl-1,2,3,4-tetrahydroisoquinolin-7-yl)amino]pyrimidine-5-carboxamide], for which it took 5.83 nM to reach half-maximal inhibition (IC50).

As for `COc1cc2c(cc1Nc1ncc(C(N)=O)c(Nc3cccc(C)c3F)n1)CN(C)CC2` [Example 4-14], it took 0.18 nM to reach half-maximal inhibition (IC50).

`COc1cc2c(cc1Nc1ncc(C(N)=O)c(N[C@@H]3CCc4ccccc43)n1)CN(C)CC2` [Example 26-67, 4-{[(1R)-2,3-dihydro-1H-inden-1-yl]amino}-2-[(6-methoxy-2-methyl-1,2,3,4-tetrahydroisoquinolin-7-yl)amino]pyrimidine-5-carboxamide] showed an IC50 of 4.74 nM.

Compound `COc1cc2c(cc1Nc1ncc(C(N)=O)c(NC3CCc4cc(F)cc(F)c43)n1)CN(C)CC2` (stereo not drawn) [Example 26-68, 4-[(5,7-difluoro-2,3-dihydro-1H-inden-1-yl)amino]-2-[(6-methoxy-2-methyl-1,2,3,4-tetrahydroisoquinolin-7-yl)amino]pyrimidine-5-carboxamide] yielded a 50% inhibitory concentration (IC50) of 2.62 nM.

As for `COc1cc2c(cc1Nc1ncc(C(N)=O)c(N[C@@H]3CCCC[C@H]3C(C)(C)O)n1)CN(C)CC2` [Example 26-42, 4-{[(1R,2R)-2-(2-hydroxypropan-2-yl)cyclohexyl]amino}-2-[(6-methoxy-2-methyl-1,2,3,4-tetrahydroisoquinolin-7-yl)amino]pyrimidine-5-carboxamide], the IC50 was found to be 205 nM.

Turning to `Cc1cccc(F)c1Nc1nc(Nc2ccc(S(C)(=O)=O)cc2)ncc1C(N)=O` [Example 4-25, 4-[(2-fluoro-6-methylphenyl)amino]-2-{[4-(methylsulfonyl)phenyl]amino} pyrimidine-5-carboxamide], the IC50 was 81.6 nM.

`Cc1cc(C)cc(Nc2ncc(C(N)=O)c(Nc3cccc4c3CCNC4=O)n2)c1` [Example 25-22, 2-[(3,5-dimethylphenyl)amino]-4-[(1-oxo-1,2,3,4-tetrahydroisoquinolin-5-yl)amino]pyrimidine-5-carboxamide] registered an IC50 of 2.98 nM.

`Cn1cc(Nc2ncc(C(N)=O)c(Nc3cccc4c3CCNC4=O)n2)c(OCC(F)F)n1` [Example 7-55, 2-{[3-(2,2-difluoroethoxy)-1-methyl-1H-pyrazol-4-yl]amino}-4-[(1-oxo-1,2,3,4-tetrahydroisoquinolin-5-yl)amino]pyrimidine-5-carboxamide] displayed an IC50 of 15.3 nM.

Regarding `COc1cc2c(cc1Nc1ncc(C(N)=O)c(Nc3ccccc3C3CC3)n1)CN(C)CC2` [Example 4-26, 4-[(2-cyclopropylphenyl)amino]-2-[(6-methoxy-2-methyl-1,2,3,4-tetrahydroisoquinolin-7-yl)amino]pyrimidine-5-carboxamide], the 50% inhibitory concentration (IC50) turned out to be 0.17 nM.

Regarding `COc1cc2c(cc1Nc1ncc(C(N)=O)c(Nc3ccccc3-c3cc(C)no3)n1)CN(C)CC2` [Example 7-85, 2-((6-methoxy-2-methyl-1,2,3,4-tetrahydroisoquinolin-7-yl)amino)-4-((2-(3-methylisoxazol-5-yl)phenyl)amino)pyrimidine-5-carboxamide], half-maximal inhibition (IC50) required 9.29 nM.

`COc1ccc(S(C)(=O)=O)cc1Nc1ncc(C(N)=O)c(Nc2cccc3c2CCNC3)n1` [Example 7-63, 2-{[2-methoxy-5-(methylsulfonyl)phenyl]amino}-4-[(1,2,3,4-tetrahydroisoquinolin-5-yl)amino]pyrimidine-5-carboxamide] yielded an IC50 of 103 nM.

`COc1cc2c(cc1Nc1ncc(C(=O)NN)c(Nc3ccccc3)n1)CN(C)CC2` [Example 18-1, 2-((6-Methoxy-2-methyl-1,2,3,4-tetrahydroisoquinolin-7-yl)amino)-4-(phenylamino)pyrimidine-5-carbohydrazide]: the concentration for half-maximal inhibition (IC50) was 23.6 nM.

In turn, `NC(=O)c1cnc(Nc2cccc(C3CC3)c2)nc1Nc1cccc2c1CCNC2=O` [Example 25-25, 2-[(3-cyclopropylphenyl)amino]-4-[(1-oxo-1,2,3,4-tetrahydroisoquinolin-5-yl)amino]pyrimidine-5-carboxamide] yielded an IC50 of 1.23 nM.

As for `COc1cc2c(cc1Nc1ncc(C(N)=O)c(N[C@H]3CC[C@@H](N(C)C)CC3)n1)CN(C)CC2` [Example 26-17, 4-{[cis-4-(dimethylamino)cyclohexyl]amino}-2-[(6-methoxy-2-methyl-1,2,3,4-tetrahydroisoquinolin-7-yl)amino]pyrimidine-5-carboxamide], the concentration for half-maximal inhibition (IC50) came to 60.2 nM.

In the case of `COc1cc2c(cc1Nc1ncc(C(N)=O)c(NC3C4CCC3CNC4)n1)CN(C)CC2` (stereo not drawn) [Example 26-30, 4-[(3-azabicyclo[3.2.1]octan-8-yl)amino]-2-[(6-methoxy-2-methyl-1,2,3,4-tetrahydroisoquinolin-7-yl)amino]pyrimidine-5-carboxamide], the IC50 is 28.6 nM.

For the compound `COc1cc2c(cc1Nc1ncc(C(N)=O)c(Nc3c(F)cc(F)cc3Cl)n1)CN(C)CC2` [Example 4-21, 4-[(2-chloro-4,6-difluorophenyl)amino]-2-[(6-methoxy-2-methyl-1,2,3,4-tetrahydroisoquinolin-7-yl)amino]pyrimidine-5-carboxamide], the IC50 is 0.45 nM.

`COc1cc2c(cc1Nc1ncc(C(N)=O)c(NCc3nccs3)n1)CN(C)CC2` [Example 26-60, 2-[(6-methoxy-2-methyl-1,2,3,4-tetrahydroisoquinolin-7-yl)amino]-4-{[(1,3-thiazol-2-yl)methyl]amino}pyrimidine-5-carboxamide] yielded an IC50 of 4.89 nM.

`NC(=O)c1cnc(Nc2ccc3c(c2)CNCC3)nc1NC1CCc2cc(F)c(F)cc21` (stereo not drawn) [Example 26-53, 4-[(5,6-difluoro-2,3-dihydro-1H-inden-1-yl)amino]-2-[(1,2,3,4-tetrahydroisoquinolin-7-yl)amino]pyrimidine-5-carboxamide] yielded an IC50 of 0.23 nM.

With `COc1cc2c(cc1Nc1ncc(C(N)=O)c(Nc3cccc(CN(C)CC(=O)O)c3)n1)CN(C)CC2` [Example 7-34, N-{[3-({5-carbamoyl-2-[(6-methoxy-2-methyl-1,2,3,4-tetrahydroisoquinolin-7-yl)amino]pyrimidin-4-yl}amino)phenyl]methyl}-N-methylglycine], inhibition was half-maximal at 2.43 nM (IC50).

Take `Cc1ccc(C)c(Nc2ncc(C(N)=O)c(Nc3cccc4c3CCNC4=O)n2)c1` [Example 25-36, 2-[(2,5-dimethylphenyl)amino]-4-[(1-oxo-1,2,3,4-tetrahydroisoquinolin-5-yl)amino]pyrimidine-5-carboxamide]: 169 nM corresponded to half-maximal inhibition (IC50).

Regarding `Cn1cc(Nc2ncc(C(N)=O)c(Nc3cccc4c3CCNC4=O)n2)cn1` [Example 7-44, 2-[(1-methyl-1H-pyrazol-4-yl)amino]-4-[(1-oxo-1,2,3,4-tetrahydroisoquinolin-5-yl)amino]pyrimidine-5-carboxamide], the concentration for half-maximal inhibition (IC50) was 4.69 nM.

On to `NC(=O)c1cnc(Nc2ccc(C3CC3)cc2)nc1Nc1cccc2c1CCNC2=O` [Example 25-13, 2-[(4-cyclopropylphenyl)amino]-4-[(1-oxo-1,2,3,4-tetrahydroisoquinolin-5-yl)amino]pyrimidine-5-carboxamide], for which it took 14 nM to reach half-maximal inhibition (IC50).

The compound `CNC(=O)c1cccc(Nc2nc(Nc3cc4c(cc3F)CCN(C)C4)ncc2C(N)=O)c1` [Example 7-41, 2-[(6-fluoro-2-methyl-1,2,3,4-tetrahydroisoquinolin-7-yl)amino]-4-{[3-(methylcarbamoyl)phenyl]amino} pyrimidine-5-carboxamide] registered an IC50 of 8.85 nM.

For `COc1cc2c(cc1Nc1ncc(C(N)=O)c(Nc3ccccc3-c3cncs3)n1)CN(C)CC2` [Example 14-1, 2-[(6-methoxy-2-methyl-1,2,3,4-tetrahydroisoquinolin-7-yl)amino]-4-{[2-(1,3-thiazol-5-yl)phenyl]amino}pyrimidine-5-carboxamide], the IC50 was found to be 2.75 nM.

Consider `NC(=O)c1cnc(Nc2ccc(F)cc2)nc1Nc1cccc2c1CCNC2=O` [Example 25-5, 2-[(4-fluorophenyl)amino]-4-[(1-oxo-1,2,3,4-tetrahydroisoquinolin-5-yl)amino]pyrimidine-5-carboxamide], for which the IC50 was determined as 217 nM.

On to `COc1cc2c(cc1Nc1ncc(C(N)=O)c(Nc3ccccc3OC(F)(F)F)n1)CN(C)CC2` [Example 7-115, 2-[(6-methoxy-2-methyl-1,2,3,4-tetrahydroisoquinolin-7-yl)amino]-4-{[2-(trifluoromethoxy)phenyl]amino} pyrimidine-5-carboxamide], for which the IC50 was found to be 0.2 nM.

Take `COc1cc2c(cc1Nc1ncc(C(N)=O)c(Nc3cccc4c3CCN(C)C4=O)n1)CN(C)CC2` [Example 7-35, 2-[(6-methoxy-2-methyl-1,2,3,4-tetrahydroisoquinolin-7-yl)amino]-4-[(2-methyl-1-oxo-1,2,3,4-tetrahydroisoquinolin-5-yl)amino]pyrimidine-5-carboxamide]: the IC50 worked out at 1.49 nM.

These data come from patent publication US20230416225A1, “DIAMINOPYRIMIDINE CARBOXAMIDE INHIBITORS OF HPK1” (MERCK SHARP & DOHME LLC, priority 2020, published 2023).
